In patent US20060110474A1, “Rubrofusarin glycoside-containing composition” (Suntory Limited, priority 2002, published 2006):
“Also recorded” adds a separate entry of the source.

Tests used:
Type in all cases: cell-based
[1] = tested on: human hepatoma HepG2 cells; assay: Synergistic effect with precursor L-cystine on intracellular glutathione level (L-cystine free D-MEM); conditions: 40 hours, FIG. 4
Description: (§1) The activity to increase intracellular glutathione level was determined by use of human hepatoma HepG2 cells. More specifically, HepG2 cells were cultured in RPMI1640 medium and added to a 96-well microplate at a density of 2.5×10^4 cells (100 μl) per well. After the HepG2 cells settled on the wall, 25 μl of each of the aforementioned samples was added and the mixture was cultured in a CO2 incubator for 48 hours. Thereafter, a culture solution was removed and the cells were washed once with phosphate buffered saline (PBS), 25 μl of a PBS solution containing 0.25 mM monochlorobimane was added and the mixture was allowed to stand in the CO2 incubator (37° C.) for 45 minutes. After the mixture was returned to room temperature, 75 μl of distilled water was added to the mixture to disperse it. The fluorescent intensity of the fluorescent substance produced by the reaction between Monochlorobimane and glutathione was measured at 355 nm/460 nm to observe a change in intracellular glutathione content.
Using human hepatoma HepG2 cells, the synergistic effect between rubrofusarin glycoside having the intracellular glutathione increasing activity and a precursor for synthesizing glutathione in vivo was investigated. […] Thereafter, intracellular glutathione levels were measured. […]

[2] = tested on: human hepatoma HepG2 cells; assay: Cytotoxicity seen in the in-vitro HepG2 cell evaluation system; conditions: HepG2, 48 hours, up to 20 μM, compared with β-naphthoflavone
Description: (§2) Using human hepatoma HepG2 cells, time-dependent induction effect of rubrofusarin glycoside upon intracellular glutathione level was investigated. The procedure was similar to that of Example 1. Briefly, HepG2 cells were dispensed at a density of 2.5×10^4 cells (100 μl) per well of a microplate and allowed to settle thereto, and then, 25 μl of an evaluation sample diluted to a predetermined concentration in RPMI1640 medium was added. The cells were cultured for 0, 6, 12, 24, and 48 hours. As the evaluation sample, use was made of the concentrate (containing 10.2% (w/w) rubrofusarin gentiobioside) of the present invention prepared in accordance with the method shown in Example 4. […]
(§3) Using human hepatoma HepG2 cells, dose dependency of the effect of rubrofusarin glycoside upon intracellular glutathione level was investigated. […] After culturing for an additional 48 hours, the intracellular glutathione level was measured to be compared with that of the cells containing no test-compound or that of the cells containing comparative compound, β-naphthoflavone (purchased from Nacalai-tesque) or silibinin (purchased from Sigma Chemical). […]

[3] = tested on: human hepatoma HepG2 cells; assay: Intracellular glutathione level of HepG2 cells (monochlorobimane fluorescence)
Description: as §1
as §2, with “hours.” for “hours. As the evaluation sample, use was made of the concentrate (containing 10.2% (w/w) rubrofusarin gentiobioside) of the present invention prepared in accordance with the method shown in Example 4.”
as §3

[4] = tested on: human hepatoma HepG2 cells; assay: Protective effect against t-butyl hydroperoxide (rate of surviving cells, WST-1 staining); conditions: HepG2, 10 μM in terms of rubrofusarin gentiobioside for 48 hours, then t-BHP 0 to 1 mM for 3 hours; β-naphthoflavone 6 μM; FIG. 3
Description: The method was similar to that in Example 5. Briefly, HepG2 cells were dispensed at a density of 2.5×10^4 cells (100 μl) per well of a microplate and allowed to settle thereto, and then, 25 μl of the concentrate diluted in RPMI1640 medium to a final concentration of 10 μM in terms of rubrofusarin gentiobioside was added. After culturing was performed for a further 48 hours, a peroxide, t-butyl hydroperoxide (t-BHP) was added so as to give a final concentration of 0 to 1 mM. The rate of surviving cells after 3 hours relative to that of the cells containing no test compound was compared with those containing comparative compounds, β-naphthoflavone (6 μM) and silibinin (10 μM). The rate of surviving cells was checked by WST-1 staining and calculated based on a control not containing t-BHP as being 100%.

| SMILES | intracellular glutathione level with L-cystine alone ([1]; L-cystine at predetermined concentrations) | cytotoxicity in a high-concentration range [2] | intracellular glutathione level in co-existence of L-cystine ([1]; 10 μM rubrofusarin glycoside plus L-cystine) | activity to increase intracellular glutathione level (HPLC fraction) ([3]; HepG2, 48 hours culture, serial two-fold dilution, 4 dilution stages) | glutathione increasing activity, dose dependency ([3]; HepG2, 48 hours, final concentration 0 to 20 μM in terms of rubrofusarin gentiobioside, FIG. 2) | intracellular glutathione level, time course ([3]; HepG2, 0, 6, 12, 24, 48 hours, 1.25, 2.5, 5.0 μM in terms of rubrofusarin gentiobioside, relative to negative control = 100%, FIG. 1) | protective effect against t-BHP (rate of surviving cells) [4] |
| --- | --- | --- | --- | --- | --- | --- | --- |
| N[C@@H](CSSC[C@H](N)C(=O)O)C(=O)O [L-cystine] | increased as the concentration of L-cystine added increased |  |  |  |  |  |  |
| COc1cc(O[C@@H]2O[C@H](CO[C@@H]3O[C@H](CO)[C@@H](O)[C@H](O)[C@H]3O)[C@@H](O)[C@H](O)[C@H]2O)c2c(O)c3c(=O)cc(C)oc3cc2c1 [rubrofusarin glycoside, rubrofusarin 6-O-β-gentiobioside] |  | lower | synergistically contribute to an increase; also recorded: acted synergistically | dose dependent and strong | increases in a dose-dependent manner; also recorded: equivalent to that of β-naphthoflavone | increases in a time-dependent manner | protecting HepG2 cells; also recorded: somewhat lower than that of β-naphthoflavone |
